These results are taken from US20050004094A1, “Cephem compounds” (priority 2003, published 2005).

The subject of this assay is Pseudomonas aeruginosa FP 1456. Description: In vitro antibacterial activity, two-fold agar-plate dilution method (MIC). In kind it is cell-based. Conditions: incubation at 37° C. for 20 hours; for MIC: FP1456, heart infusion agar, read-out: MIC (minimal inhibitory concentration). As for the experimental part: In vitro antibacterial activity was determined by the two-fold agar-plate dilution method as described below. One loopful of an overnight culture of each test strain in Trypticase-soy broth (10^6 viable cells per ml) was streaked on heart infusion agar (HI-agar) containing graded concentrations of representative test compound, and the minimal inhibitory concentration (MIC) was expressed in μg/ml after incubation at 37° C. for 20 hours.

Structures are written as SMILES. ≈ marks a conversion by molar mass, not a printed value.

Regarding `CC(C)(O/N=C(\C(=O)N[C@@H]1C(=O)N2C(C(=O)[O-])=C(C[n+]3ccccc3)CS[C@H]12)c1csc(N)n1)C(=O)O` [Ceftazidime, reference compound], the MIC was determined as 32 µg/mL (≈ 58.5 µM). The same measure, in the same setting: with `Cn1c(CCN)cc[n+]1CC1=C(C(=O)O)N2C(=O)[C@@H](NC(=O)/C(=N\OC(C)(C)C(=O)O)c3nsc(N)n3)[C@H]2SC1.O=S(=O)([O-])O` [Compound (a), 3-[3-(2-aminoethyl)-2-methyl-1-pyrazolio]methyl-7β-[(Z)-2-(5-amino-1,2,4-thiadiazol-3-yl)-2-(1-carboxy-1-methylethoxyimino)acetamido]-3-cephem-4-carboxylic acid hydrogen sulfate] the figure was 1 µg/mL; with `Cn1c(CCNC(=N)N)cc[n+]1CC1=C(C(=O)[O-])N2C(=O)[C@@H](NC(=O)/C(=N\OC(C)(C)C(=O)O)c3nsc(N)n3)[C@H]2SC1` [Compound (b), 3-{[3-(2-{[amino(imino)methyl]amino}ethyl)-2-methyl-1-pyrazolio]methyl}-7β-({(2Z)-2-(5-amino-1,2,4-thiadiazol-3-yl)-2-[(1-carboxy-1-methylethoxy)imino]ethanoyl}-amino)-3-cephem-4-carboxylate], 2 µg/mL (≈ 3.15 µM). Turning to `Cn1cc(CCN)c[n+]1CC1=C(C(=O)[O-])N2C(=O)[C@@H](NC(=O)/C(=N\OC(C)(C)C(=O)O)c3nsc(N)n3)[C@H]2SC1` [Compound (c), 3-{[4-(2-aminoethyl)-2-methyl-1-pyrazolio]methyl}-7β-({(2Z)-2-(5-amino-1,2,4-thiadiazol-3-yl)-2-[(l-carboxy-1-methylethoxy)imino]ethanoyl}amino)-3-cephem-4-carboxylate], the “MIC (minimal inhibitory concentration)” value (heart infusion agar) was 2 µg/mL (≈ 3.37 µM).
